Bounds are passed on as bounds.

The target in the assay is PARP7 (Homo sapiens (Human), UniProt Q7Z3E1). Description: Enzymatic assay for inhibition of PARP7: TR-FRET displacement of biotinylated Probe A from the TIPARP active site. The class given is binding. The settings on record: Table A-1. Here is the method: 20 nL of a dose response curve of each test compound was spotted in black 384-well polystyrene proxiplates (Perkin Elmer) using a Mosquito (TTP Labtech). […] Reactions were incubated at 25° C. for an additional 30 min, then read on an Envision platereader equipped with a LANCE/DELFIA top mirror (Perkin Elmer) using excitation of 320 nm and emission of 615 nm and […] with a 90 μs delay. The ratio of the 665/615 nm emission were calculated for each well to determine the amount of complex of TIPARP and Probe A in each well. […] The Hill Coefficient is normally allowed to float but may also be fixed at 1 in a 3-parameter fit. Y is the % inhibition and x is the compound concentration.
Sequence of PARP7 (Q7Z3E1 whole entry): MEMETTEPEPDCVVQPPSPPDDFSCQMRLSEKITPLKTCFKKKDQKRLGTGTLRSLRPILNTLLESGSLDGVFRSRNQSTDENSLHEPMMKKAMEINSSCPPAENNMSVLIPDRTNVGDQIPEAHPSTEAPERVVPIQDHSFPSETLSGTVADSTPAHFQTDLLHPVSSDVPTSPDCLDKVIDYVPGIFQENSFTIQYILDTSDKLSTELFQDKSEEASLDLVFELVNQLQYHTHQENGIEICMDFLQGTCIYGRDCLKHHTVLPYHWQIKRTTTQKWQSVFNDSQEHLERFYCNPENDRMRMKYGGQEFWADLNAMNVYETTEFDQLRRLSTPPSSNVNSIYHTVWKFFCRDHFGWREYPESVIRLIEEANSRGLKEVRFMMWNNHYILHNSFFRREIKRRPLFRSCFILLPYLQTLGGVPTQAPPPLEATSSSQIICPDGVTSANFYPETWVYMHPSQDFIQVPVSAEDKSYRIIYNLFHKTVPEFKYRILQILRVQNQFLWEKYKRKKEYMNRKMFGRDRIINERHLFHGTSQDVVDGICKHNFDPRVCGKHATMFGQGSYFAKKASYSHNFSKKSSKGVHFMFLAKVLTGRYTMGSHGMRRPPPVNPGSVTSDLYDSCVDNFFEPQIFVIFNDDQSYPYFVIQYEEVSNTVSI
For “6-(4-[3-[(2R)-2-[[6-Oxo-5-(trifluoromethyl)-1,6-dihydropyridazin-4-yl]amino]-2-phenylethoxy]propanoyl]piperazin-1-yl)pyridine-3-carbonitrile [Example 515A]”, the IC50 is at least 1000 nM.
To “6-[4-(3-[[(1S,2S)-1-[[6-Oxo-5-(trifluoromethyl)-1-[[2-(trimethylsilyl)ethoxy]methyl]-1,6-dihydropyridazin-4-yl]amino]-2,3-dihydro-1H-inden-2-yl]oxy]propanoyl)piperazin-1-yl]pyridine-3-carbonitrile [Example 537 Isomer A]” belongs at least 1000 nM; to `COC[C@@H](COCCC(=O)N1CCN(c2ncc(Cl)cn2)CC1)Oc1cn[nH]c(=O)c1C(F)(F)F` (single isomer, unassigned) [listing 1 of 2 here], under 100 nM; to `COC[C@H](COCCC(=O)N1CCN(c2ncc(Cl)cn2)CC1)Oc1cn[nH]c(=O)c1C(F)(F)F` (single isomer, unassigned), 100 to 1000 nM.
In the case of `COC[C@@H](COCCC(=O)N1CCN(c2ncc(Cl)cn2)CC1)Oc1cn[nH]c(=O)c1C(F)(F)F` (single isomer, unassigned) [listing 2 of 2 here], the IC50 is under 100 nM.
For `N#Cc1ccc(N2CCN(C(=O)c3cccc(OC[C@H]4c5ccccc5CN4c4cn[nH]c(=O)c4C(F)(F)F)c3)CC2)nc1` (single isomer, unassigned) [Example 18 Isomer A] the value was 100 to 1000 nM; for `O=C(c1cccc(OC[C@H]2c3ccccc3CN2c2cn[nH]c(=O)c2C(F)(F)F)c1)N1CCN(c2ccc(C(F)(F)F)cn2)CC1` (single isomer, unassigned) [Example 30 Isomer A], at least 1000 nM; for `O=C(c1cccc(OC[C@@H]2c3ccccc3CN2c2cn[nH]c(=O)c2C(F)(F)F)c1)N1CCN(c2ccc(C(F)(F)F)cn2)CC1` (single isomer, unassigned) [Example 30 Isomer B], under 100 nM.
For `N#Cc1ccc(N2CCN(C(=O)c3ccc(OC[C@@H]4c5ccccc5CN4c4cn[nH]c(=O)c4C(F)(F)F)cc3)CC2)nc1` (single isomer, unassigned) [Example 35 Isomer A] the value was at least 1000 nM.
`N#Cc1ccc(N2CCN(C(=O)c3ccc(OC[C@H]4c5ccccc5CN4c4cn[nH]c(=O)c4C(F)(F)F)cc3)CC2)nc1` (single isomer, unassigned) [Example 35 Isomer B] came in with an IC50 of 100 to 1000 nM.
The molecule `N#Cc1ccc(N2CCN(C(=O)c3ccnc(OC[C@@H]4c5ccccc5CN4c4cn[nH]c(=O)c4C(F)(F)F)c3)CC2)nc1` (single isomer, unassigned) [Example 36 Isomer B] had a concentration for half-maximal inhibition (IC50) of under 100 nM.
`N#Cc1ccc(N2CCN(C(=O)c3ccnc(OC[C@@H]4c5ccccc5CN4c4cn[nH]c(=O)c4C(F)(F)F)n3)CC2)nc1` (single isomer, unassigned) [Example 38 Isomer A] displayed an IC50 of under 100 nM.
Regarding `N#Cc1ccc(N2CCN(C(=O)[C@@H]3CNC[C@@H](OC[C@@H]4CCCN4c4cn[nH]c(=O)c4C(F)(F)F)C3)CC2)nc1` (single isomer, unassigned) [Example 56 Isomer A], the IC50 is under 100 nM.
`N#Cc1ccc(N2CCN(C(=O)[C@H]3CNC[C@H](OC[C@@H]4CCCN4c4cn[nH]c(=O)c4C(F)(F)F)C3)CC2)nc1` (single isomer, unassigned) [Example 56 Isomer B] displayed an IC50 of 100 to 1000 nM.
For `N#Cc1ccc(N2CCN(C(=O)[C@H]3CCC[C@H](OC[C@@H]4CCCN4c4cn[nH]c(=O)c4C(F)(F)F)C3)CC2)nc1` (single isomer, unassigned) [Example 57 Isomer A], the half-inhibitory concentration (IC50) was in the range of 100 to 1000 nM.
Molecule `N#Cc1ccc(N2CCN(C(=O)[C@@H]3CCC[C@@H](OC[C@@H]4CCCN4c4cn[nH]c(=O)c4C(F)(F)F)C3)CC2)nc1` (single isomer, unassigned) [Example 57 Isomer B] registered an IC50 of under 100 nM.
In turn, `N#Cc1ccc(N2CCN(C(=O)[C@H]3CCC[C@@H](OC[C@@H]4CCCN4c4cn[nH]c(=O)c4C(F)(F)F)C3)CC2)nc1` (single isomer, unassigned) [Example 57 Isomer C] came in with a concentration for half-maximal inhibition (IC50) of 100 to 1000 nM.
For `N#Cc1ccc(N2CCN(C(=O)[C@@H]3CCC[C@H](OC[C@@H]4CCCN4c4cn[nH]c(=O)c4C(F)(F)F)C3)CC2)nc1` (single isomer, unassigned) [Example 57 Isomer D] the value was 100 to 1000 nM.
For the molecule `N#Cc1cnc(N2CCN(C(=O)c3cc(OC[C@H]4c5ccccc5CN4c4cn[nH]c(=O)c4C(F)(F)F)ccn3)CC2)nc1` (single isomer, unassigned) [Example 64 Isomer A], the IC50 was at least 1000 nM.
To `N#Cc1cnc(N2CCN(C(=O)c3cc(OC[C@@H]4c5ccccc5CN4c4cn[nH]c(=O)c4C(F)(F)F)ccn3)CC2)nc1` (single isomer, unassigned) [Example 64 Isomer B] belongs under 100 nM.
On to `N#Cc1ccc(N2CCN(C(=O)c3cncc(OC[C@@H]4c5ccccc5CN4c4cn[nH]c(=O)c4C(F)(F)F)n3)CC2)nc1` (single isomer, unassigned) [Example 72 Isomer A], for which the concentration for half-maximal inhibition (IC50) was under 100 nM.
For `N#Cc1ccc(N2CCN(C(=O)CCOC[C@H]3c4ccccc4CN3c3cn[nH]c(=O)c3C(F)(F)F)CC2)nc1` (single isomer, unassigned) [Example 93 Isomer B] the value was 100 to 1000 nM; for `C[C@H](COC[C@@H]1CCCN1c1cn[nH]c(=O)c1C(F)(F)F)C(=O)N1CCN(c2ccc(C#N)cn2)CC1` (single isomer, unassigned) [Example 94 Isomer A], under 100 nM; for `C[C@@H](COC[C@@H]1CCCN1c1cn[nH]c(=O)c1C(F)(F)F)C(=O)N1CCN(c2ccc(C#N)cn2)CC1` (single isomer, unassigned) [Example 94 Isomer B], under 100 nM.
Take `N#Cc1ccc(N2CCN(C(=O)C/C=C\OC[C@@H]3CCCN3c3cn[nH]c(=O)c3C(F)(F)F)CC2)nc1` (single isomer, unassigned) [Example 96 Isomer A]: the IC50 is under 100 nM.
`N#Cc1ccc(N2CCN(C(=O)/C=C/COC[C@@H]3CCCN3c3cn[nH]c(=O)c3C(F)(F)F)CC2)nc1` (single isomer, unassigned) [Example 96 Isomer B] displayed an IC50 of under 100 nM.
For `O=C(C[C@@H]1CC[C@H]([C@@H]2CCCN2c2cn[nH]c(=O)c2C(F)(F)F)O1)N1CCN(c2ncc(Cl)cn2)CC1` (single isomer, unassigned) [Example 147C] the value was 100 to 1000 nM; for `O=c1[nH]ncc(N2Cc3cccc(OC[C@@H]4CCCO4)c3C2)c1C(F)(F)F` (single isomer, unassigned) [Example 222], under 100 nM.
With `COC[C@H](COCCC(=O)N1CCN(c2ccc(C#N)cn2)CC1)Nc1cn[nH]c(=O)c1C(F)(F)F` (single isomer, unassigned) [Example 518A], the 50% inhibitory concentration (IC50) was at least 1000 nM.
Turning to `COC[C@@H](COCCC(=O)N1CCN(c2ccc(C#N)cn2)CC1)Nc1cn[nH]c(=O)c1C(F)(F)F` (single isomer, unassigned) [Example 518B], the IC50 was under 100 nM.
`COC[C@@H](COCCC(=O)N1CCN(c2ccc(C#N)cn2)CC1)Oc1cn[nH]c(=O)c1C(F)(F)F` (single isomer, unassigned) [Example 532 Isomer A] came in with an IC50 of under 100 nM.
`COC[C@H](COCCC(=O)N1CCN(c2ccc(C#N)cn2)CC1)Oc1cn[nH]c(=O)c1C(F)(F)F` (single isomer, unassigned) [Example 532 Isomer B]: the IC50 lay in the range of 100 to 1000 nM.

By IC50 is commonly meant the concentration that gives 50% inhibition. Read a low IC50 as greater potency.

The record behind these values is patent US10550105B2 (Ribon Therapeutics Inc., priority 2018, dated 2020).
